Experimental data published in patent US9856218B2, “Inhibitors of PRMT5 and methods of their use” (Ohio State Innovation Foundation, priority 2013, dated 2018).
pEC50, pIC50: −log10 of the molar value. Like-named read-outs stand apart in the source and are kept apart here.

What was measured:
[1] = tested on: multiple cell lines; assay: Proliferation of multiple cell lines (FIG. 59); type: cell-based; settings: FIG. 59A-E
Description: Proliferation of multiple cell lines was evaluated for CMPD 5, CMPD 7, HLCL61, HLCL-65, and HLCL-66 (FIG. 59A-E).

[2] = tested on: JeKo cells; assay: Immunofluorescence staining of methylated H4(Me2)R3 / H3(Me2)R8; type: cell-based; settings: FIG. 2F
Description: DAPI was used to stain nuclei.
Immunofluorescence assays for screening for presence of type II PRMT epigenetic marks (H4(SMe2)R3) compared to type I mark (H4(AMe2)R3). Cell lines were incubated for 24 hours with all the 14 compounds. After 24 hours, cells were fixed, blocked and treated with mAbs specific for symmetric dimethylation and asymmetric dimethylation of histone H4R3 respectively. Alexa Fluor 488 conjugated 2nd Ab was used for the staining of histone marks (green). Draq5 was used to stain nuclei (blue).

[3] = tested on: PRMT5 expression and phosphorylation levels in AML cells; assay: PRMT5 expression and phosphorylation after FLT3 inhibition; type: cell-based; settings: FIG. 38C
Description: Whole cell lysates were prepared by suspending cell pellets in RIPA buffer for 20 min (1% NP-40, 0.1% SDS, 150 mM NaCl, 50 mM Tris, pH 8.0), then supplemented with 1× complete EDTA free protease inhibitor (Roche) and 1× PhosStop (Roche). Lysates were separated by 4-20% SDS-PAGE and transferred to PVDF membrane (GE Healthcare, Piscataway, N.J.). Membranes were blocked with 5% milk or BSA in 1×TBS with 0.1% Tween 20 for 1 hour at room temperature with shaking. Primary antibodies for ACTIN, GAPDH and FLT3 (Santa Cruz Biotechnology, Santa Cruz Calif.), P65 (Cell signaling), PRMT5 and SP1 (Millipore), H4R3, H3R8, H3 and H4 (Abcam), were diluted 1:1000 or 1:2000 in 5% milk or BSA and incubated for 1-2 hr at room temperature. Membranes were washed using 1×TBS-T, incubated with HRP-conjugated secondary antibodies diluted in 1×TBS-T with 5% milk or BSA, washed, and developed using SuperSignal West Dura Chemiluminescent Substrate (Thermo Scientific).

[4] = tested on: Mantle cell lymphoma cell line Jeko; assay: MTS anti-proliferation assay; type: cell-based
Description: MTS proliferation assays were performed according the CellTiter 96™ Aqueous Cell Proliferation Assay Technical Bulletin (Promega, Madison, Wis.). 5×10^5 cells were plated in each well of a 96-well plate at 37° C. and assayed for proliferation at 24, 48, and 72 hr. Proliferation signal at 50% of control was used as IC50 for growth.
(§1) Following the synthesis of 14 compounds, the anti-proliferation and pro-apoptotic activities of those compounds was evaluated in Mantle cell lymphoma cell line Jeko. Replicate cultures of Jeko were incubated in DMSO and the compounds for 24, 48 and 72 hours. FITC-Annexin V-PI stained flow cytometry was used to detect the apoptotic population of cells (Table 4).

[5] = biological target: T1, recombinant human PRMT5/MEP50 enzyme (Homo sapiens, UniProt O14744); assay: Epigenase PRMT methyltransferase (type II-specific) activity/inhibition assay kit; type: biochemical; settings: 25 ng recombinant human PRMT5/MEP50 per reaction; read-out: Inhibition of PRMT5 mediated H4R3 methylation (IC50)
T1 construct: purchased BPS Bioscience
T1 sequence (O14744 2-637 limits assumed): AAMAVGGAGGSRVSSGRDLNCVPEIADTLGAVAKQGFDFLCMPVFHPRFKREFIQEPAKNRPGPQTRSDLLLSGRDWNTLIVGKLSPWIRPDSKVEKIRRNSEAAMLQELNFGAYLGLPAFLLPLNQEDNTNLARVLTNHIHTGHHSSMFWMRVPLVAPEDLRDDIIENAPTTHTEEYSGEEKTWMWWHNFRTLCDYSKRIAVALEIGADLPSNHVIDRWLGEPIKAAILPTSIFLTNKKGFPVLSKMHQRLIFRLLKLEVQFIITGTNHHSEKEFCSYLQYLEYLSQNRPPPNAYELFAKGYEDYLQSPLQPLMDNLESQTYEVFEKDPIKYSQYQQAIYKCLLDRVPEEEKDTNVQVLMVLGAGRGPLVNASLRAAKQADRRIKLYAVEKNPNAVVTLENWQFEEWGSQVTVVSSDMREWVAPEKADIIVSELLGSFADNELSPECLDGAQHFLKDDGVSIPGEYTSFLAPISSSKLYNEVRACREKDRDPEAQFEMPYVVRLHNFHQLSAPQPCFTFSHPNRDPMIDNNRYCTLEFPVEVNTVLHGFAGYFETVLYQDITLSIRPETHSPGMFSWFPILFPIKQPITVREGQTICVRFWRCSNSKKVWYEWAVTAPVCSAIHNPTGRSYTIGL
T1 sequence (Q9BQA1 2-342 partner limits assumed): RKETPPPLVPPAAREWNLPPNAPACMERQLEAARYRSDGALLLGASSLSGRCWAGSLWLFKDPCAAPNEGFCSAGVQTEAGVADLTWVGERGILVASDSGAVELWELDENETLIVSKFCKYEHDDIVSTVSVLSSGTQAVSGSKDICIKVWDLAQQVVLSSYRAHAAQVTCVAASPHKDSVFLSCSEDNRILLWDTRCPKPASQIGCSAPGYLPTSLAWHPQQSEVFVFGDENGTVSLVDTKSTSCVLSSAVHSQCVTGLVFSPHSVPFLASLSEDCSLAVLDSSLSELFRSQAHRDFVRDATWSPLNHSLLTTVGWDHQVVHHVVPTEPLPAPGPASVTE
Description: The inhibition of PRMT5 mediated H4R3 methylation result was obtained with Epigenase™ PRMT methyltransferase (type II-specific) activity/inhibition assay kit. 25 ng recombinant human PRMT5/MEP50 enzyme (purchased from BPS Bioscience) was used in each reaction.

[6] = tested on: Mantle cell lymphoma cell line Jeko; assay: Induction of apoptosis, FITC-Annexin V-PI flow cytometry; type: cell-based
Description: Analysis by flow cytometry. Cell viability was also measured by flow cytometry at 24 and 48 hr using annexin-V-FITC and propidium iodide (PI) according to the manufacturer's instructions (BD Biosciences).
as §1

[7] = biological target: T2, affinity-purified hSWI/SNF associated PRMT5 (Homo sapiens, UniProt O14744); assay: Histone methyltransferase assay, [3H]SAM; type: biochemical; settings: for inhibition of PRMT5 enzyme: 10 μM, FIG. 17B; for pIC50: FIG. 16, 1-40 μM compound, HeLa S3 core histones, read-out: PRMT5 methylation activity IC50
T2 construct: made in house
T2 sequence (O14744 whole entry): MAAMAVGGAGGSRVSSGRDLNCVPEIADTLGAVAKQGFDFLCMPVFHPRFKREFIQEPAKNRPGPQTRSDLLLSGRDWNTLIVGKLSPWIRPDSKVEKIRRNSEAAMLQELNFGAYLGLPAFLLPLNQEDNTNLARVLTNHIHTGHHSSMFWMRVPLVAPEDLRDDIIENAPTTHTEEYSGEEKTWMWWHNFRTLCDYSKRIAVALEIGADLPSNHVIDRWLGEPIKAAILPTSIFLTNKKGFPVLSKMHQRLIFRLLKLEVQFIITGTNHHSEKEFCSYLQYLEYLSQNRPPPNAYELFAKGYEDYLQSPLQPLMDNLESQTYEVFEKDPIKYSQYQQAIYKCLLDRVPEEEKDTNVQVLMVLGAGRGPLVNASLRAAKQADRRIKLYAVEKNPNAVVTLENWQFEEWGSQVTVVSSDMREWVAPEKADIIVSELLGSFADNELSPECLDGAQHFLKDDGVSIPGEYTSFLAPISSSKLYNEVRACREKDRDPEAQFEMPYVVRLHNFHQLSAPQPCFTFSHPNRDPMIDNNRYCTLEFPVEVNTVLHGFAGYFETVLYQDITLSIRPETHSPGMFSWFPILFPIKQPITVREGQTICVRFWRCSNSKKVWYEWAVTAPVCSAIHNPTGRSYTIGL
T2 sequence (Q9BQA1 whole entry partner): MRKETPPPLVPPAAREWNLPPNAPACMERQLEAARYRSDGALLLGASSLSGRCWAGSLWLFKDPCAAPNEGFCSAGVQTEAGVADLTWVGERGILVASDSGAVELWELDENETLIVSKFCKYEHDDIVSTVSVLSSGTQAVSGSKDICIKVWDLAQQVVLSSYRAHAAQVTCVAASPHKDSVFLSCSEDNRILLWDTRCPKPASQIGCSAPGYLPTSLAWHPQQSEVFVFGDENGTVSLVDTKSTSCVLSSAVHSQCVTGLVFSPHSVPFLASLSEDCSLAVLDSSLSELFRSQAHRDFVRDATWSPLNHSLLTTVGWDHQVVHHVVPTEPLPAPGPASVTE
Description: (§2) Histone methylation was performed in the presence of DMSO, and 1-40 μM inhibitor compounds. […] After 1.5 h incubation at 30° C., reaction mixtures were spotted on Whatman P-81 filter paper, washed five times with 10 mL of […] sodium carbonate buffer (pH 9.0) to remove unincorporated [3H]SAM, and methylated peptides were detected by scintillation counting.
Type II PRMT enzymes repress gene transcription and symmetrically dimethylate H3R8 and H4R3, while type I PRMT enzymes activate gene transcription and asymmetrically dimethylate H4R3. Purified PRMT5, PRMT1, PRMT4 and PRMT7 were obtained to perform the assay.
as §2, with “HLCL-32, HLCL-10, HLCL-61 and HLCL-64.” for “inhibitor compounds.”, “After a” for “After”, “C.” for “C.,”, “[^3H]SAM,” for “[3H]SAM,”

[8] = biological target: T3, recombinant PRMT1 (Rattus norvegicus, UniProt Q63009); assay: Histone methyltransferase assay, [3H]SAM; type: biochemical
T3 construct: purchased Millipore 14-474
T3 sequence (Q63009 whole entry): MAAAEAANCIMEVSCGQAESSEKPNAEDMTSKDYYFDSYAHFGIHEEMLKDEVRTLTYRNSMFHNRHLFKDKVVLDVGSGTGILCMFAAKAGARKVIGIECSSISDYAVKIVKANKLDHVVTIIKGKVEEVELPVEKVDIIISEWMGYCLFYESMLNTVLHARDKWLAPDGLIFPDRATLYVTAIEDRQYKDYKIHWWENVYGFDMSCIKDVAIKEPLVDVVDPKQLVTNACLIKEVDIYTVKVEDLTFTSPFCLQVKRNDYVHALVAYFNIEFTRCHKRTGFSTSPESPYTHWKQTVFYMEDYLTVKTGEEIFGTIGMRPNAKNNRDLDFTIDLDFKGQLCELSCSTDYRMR
Description: as §2
as §2, with “HLCL-32, HLCL-10, HLCL-61 and HLCL-64.” for “inhibitor compounds.”, “After a” for “After”, “C.” for “C.,”, “[^3H]SAM,” for “[3H]SAM,”

[9] = In vivo pharmacokinetics, plasma concentration; parameters: species or system Mouse; settings: for concentration at 0.08 h / concentration at 0.17 h / concentration at 0.33 h / concentration at 0.5 h / concentration at 1 h / concentration at 2 h / concentration at 4 h / concentration at 6 h / concentration at 8 h / concentration at 24 h: mouse, in vivo, read-out: Mouse plasma concentration; for concentration at 0.5 h: 0.50 h
Text: Pharmacokinetic data of compounds HLCL-7, HLCL-61, and HLCL-66 taken from an in vivo study is illustrated in Table 10. […]

[10] = 24 hr Quick MTD test, one mouse for each dose; type: in vivo; settings: one mouse
Description: (§3) Controlled shRNA depletion was evaluated in a murine lymphoma model (Eμ-BRD2 (Chung, J., et al. (2013) J. Biological Chemistry 288, 35534-35547)) and human xenograft model of glioblastoma (Yan, F., et al (2014) Cancer Research In Press). Referring to FIG. 62A, controlled expression of a PRMT5 shRNA (solid line) but not control shRNA (dashed line) leads to 100% survival of mice engrafted primary DLBCL tumor cells. […] The maximum tolerated dose (MTD, single dose) was identified at 50 mg/kg (see Table 11 below). A sub-toxic dose (25 mg/kg) was used to treat FcMCL mice. Control mice developed peripheral blood and lymph node tumor burden starting day 20 post-engraftment.

[11] = MTD study, four mice each dose; type: in vivo
Description: as §3

[12] = tested on: FcMCL mice; assay: FcMCL mantle cell lymphoma mouse model; type: in vivo; settings: 25 mg/kg, IP, every other day
Description: as §3

[13] = incubation time not given (24, 48, 72 h tested)
[14] = IV 5 mg/kg, Tween80 formulation

CCn1c2ccccc2c2cc(CNCc3ccccn3)ccc21 [CMP5, reference compound]
potency, proliferation of multiple cell lines [1]: low micromolar range
PRMT5 driven epigenetic marks (symmetrically methylated H4(Me2)R3, H3(Me2)R8) [2]: interferes with PRMT5 driven epigenetic marks

COc1ccc(C(=O)Nc2sc3c(c2C(N)=O)CCCC3)cc1OC [FLT3 inhibitor (CALBIOCHEM #343020)]
PRMT5 expression and phosphorylation levels [3]: did not change

CS(=O)(=O)c1ccc(Cn2c3ccccc3c3ccccc32)cc1 [HLCL-1]
pIC50 [4, 13]: < 4.30
pIC50 [5]: < 4.30

CCn1c2ccccc2c2cc(NC(=S)Nc3ccc(S(C)(=O)=O)cc3)ccc21 [HLCL-6]
pIC50 [4, 13]: < 4.30
pIC50 [5]: < 4.30

CCn1c2ccccc2c2cc(CNc3ccc(S(C)(=O)=O)cc3)ccc21 [HLCL-9]
pIC50 [4, 13]: < 4.30
pIC50 [5]: < 4.30

CCn1c2ccccc2c2cc(CNCc3ccc(S(C)(=O)=O)cc3)ccc21 [HLCL-10]
pIC50 ([4]; 24 h incubation): 4.08
pIC50 ([4]; 48 h incubation): 4.33
pIC50 ([4]; 72 h incubation): 4.22
pEC50 ([6]; 24 h): 4.40
pEC50 ([6]; 48 h): 4.46
pIC50 [5]: < 4.30
inhibition of PRMT5 enzyme [7]: the only enzyme that is affected is PRMT5
pIC50 [7]: ~5.30
inhibition of PRMT1 enzyme ([8]; 10 μM, FIG. 17B): this non-specific activity is lost
inhibition of PRMT1 enzyme ([8]; 20 μM and above, FIG. 17A): non-specific inhibition

CCn1c2ccccc2c2cc(/C=N/Nc3ccc(S(C)(=O)=O)cc3)ccc21 [HLCL-12]
pIC50 [4, 13]: < 4.30
pIC50 [5]: < 4.30

CS(=O)(=O)c1ccc(C(O)C(O)Cn2c3ccccc3c3ccccc32)cc1 (centres unmarked) [HLCL-17&20]
pIC50 [4, 13]: < 4.30
pIC50 [5]: < 4.30

CS(=O)(=O)c1ccc(NCCn2c3ccccc3c3ccccc32)cc1 [HLCL-23]
pIC50 [4, 13]: < 4.30
pIC50 [5]: < 4.30

CCn1c2ccccc2c2cc(CNc3ccc(S(N)(=O)=O)cc3)ccc21 [HLCL-32]
pIC50 ([4]; 24 h incubation): 4.29
pIC50 ([4]; 48 h incubation): 4.54
pIC50 ([4]; 72 h incubation): 4.54
pEC50 ([6]; 24 h): 4.52
pEC50 ([6]; 48 h): 4.70
pIC50 [5]: < 4.30
inhibition of PRMT5 enzyme [7]: the only enzyme that is affected is PRMT5
pIC50 [7]: ~5.30
inhibition of PRMT1 enzyme ([8]; 10 μM, FIG. 17B): this non-specific activity is lost
inhibition of PRMT1 enzyme ([8]; 20 μM and above, FIG. 17A): non-specific inhibition

CS(=O)(=O)c1ccc(/C=C/Cn2c3ccccc3c3ccccc32)cc1 [HLCL-63]
pIC50 [4, 13]: < 4.30
pIC50 [5]: < 4.30

CS(=O)(=O)c1ccc(/C=C\Cn2c3ccccc3c3ccccc32)cc1 [HLCL-64]
pIC50 [4, 13]: < 4.30
pIC50 [5]: < 4.30
inhibition of PRMT5 enzyme [7]: the only enzyme that is affected is PRMT5
pIC50 [7]: ~5.30
inhibition of PRMT1 enzyme ([8]; 10 μM, FIG. 17B): this non-specific activity is lost
inhibition of PRMT1 enzyme ([8]; 20 μM and above, FIG. 17A): non-specific inhibition

CCn1c2ccc(Br)cc2c2cc(CNCc3ccccc3OC)ccc21 [HLCL-65]
pIC50 ([4]; 24 h incubation): 5.05
pIC50 ([4]; 48 h incubation): 5.10
pIC50 ([4]; 72 h incubation): 5.22
pEC50 ([6]; 24 h): 5.40
pEC50 ([6]; 48 h): 5.30
pIC50 [5]: 4.52
potency, proliferation of multiple cell lines [1]: low micromolar range
peak plasma concentrations ([9]; IV and IP routes at a dose of 25 mg/kg, FIG. 62B): 8 to 20 µM
concentration at 0.08 h ([9]; IP 25 mg/kg, DMSO solution): 6240 nM
concentration at 0.17 h ([9]; IP 25 mg/kg, DMSO solution): 6270 nM
concentration at 0.33 h ([9]; IP 25 mg/kg, DMSO solution): 5280 nM
concentration at 0.5 h ([9]; IP 25 mg/kg, DMSO solution): 1660 nM
concentration at 1 h ([9]; IP 25 mg/kg, DMSO solution): 1590 nM
concentration at 2 h ([9]; IP 25 mg/kg, DMSO solution): 8450 nM
concentration at 4 h ([9]; IP 25 mg/kg, DMSO solution): 4510 nM
concentration at 6 h ([9]; IP 25 mg/kg, DMSO solution): 5480 nM
concentration at 8 h ([9]; IP 25 mg/kg, DMSO solution): 3710 nM
concentration at 24 h ([9]; IP 25 mg/kg, DMSO solution): 480 nM
concentration at 0.08 h [9, 14]: 2940 nM
concentration at 0.17 h [9, 14]: 2050 nM
concentration at 0.33 h [9, 14]: 2940 nM
concentration at 0.5 h [9, 14]: 2390 nM
concentration at 1 h [9, 14]: 1890 nM
concentration at 2 h [9, 14]: 1930 nM
concentration at 4 h [9, 14]: 1530 nM
concentration at 6 h [9, 14]: 720 nM
concentration at 8 h [9, 14]: 513 nM
concentration at 24 h [9, 14]: 29.6 nM
survival after dosing ([10]; IP-50 mg/kg): Alive 24 hr after
clinical signs after dosing ([10]; IP-100 mg/kg, after 24 hr): paralyzed
clinical signs after dosing ([10]; IP-200 mg/kg): Paralyzed after dosing,
survival after dosing ([10]; IP-200 mg/kg): dead within 1 hr
survival after dosing ([10]; IV-2.5 mg/kg): Dead instantly after
survival after dosing ([10]; IV-5 mg/kg): Alive 24 hr after
survival after dosing ([10]; IV-10 mg/kg): Dead instantly after
survival after dosing ([10]; IV-20 mg/kg): Dead instantly after
survival 24 hr after dosing ([11]; IP-5 mg/kg, four mice): Alive 24 hr after
condition within 1 hr after dosing (alive but slow moving) ([11]; IP-50 mg/kg, four mice): Alive within 1 hr after
survival 24 hr after dosing ([11]; IP-50 mg/kg, four mice): moving. Alive 24 hr
MTD at 24 h ([11]; mouse, in vivo, single dose, mice, read-out: maximum tolerated dose (MTD, single dose)): 50 mg/kg
tumor burden in FcMCL mice ([12]; lymph node versus peripheral blood): controlling development of lymph node tumor burden but not peripheral blood FcMCL tumor burden
survival of FcMCL mice ([12]; preliminary experiment): improved survival

CO[C@@H]1[C@H](N(C)C(=O)c2ccccc2)C[C@H]2O[C@]1(C)n1c3ccccc3c3c4c(c5c6ccccc6n2c5c31)C(=O)NC4 [PKC412]
PRMT5 expression and phosphorylation levels [3]: did not change
